According to article PMC8704315, “Lichen-Derived Compounds and Extracts as Biologically Active Substances with Anticancer and Neuroprotective Properties” (Pharmaceuticals, 2021):
“Also recorded” adds a separate entry of the source. Like-named read-outs stand apart in the source and are kept apart here.

Assays:
Format in all cases: biochemical
[1] = system: Superoxide dismutase (SOD); test: Effect on superoxide dismutase activity; conditions: 537.6 μg/mL reaction mixture, ± SEM, n = 3
Description: Sample (50 µL, 5 mg/mL of pure DMSO) was mixed with 10 μL SOD (0.24 U), 160 μL nitrobluetatrazolium solution (0.0025 M), 205 μLphosphate buffer (0.2 M, pH 7.5), 30 μL xanthine (150 mM in 1 M NaOH) and 0.01 mL xanthine oxidase (0.065 U, Sigma Aldrich X4875). The change in the absorbance at 550 nm was measured in tested samples vs. controls without the studied sample after […] of incubation and the effect on the enzyme was calculated using the equation [74]: (3) Inhibition [%]=100 – 100×(Abs. 30 min – Abs. 0 min)/(Abs. control. 30 min – Abs. control 0 min)

[2] = target: T1, glutathione peroxidase (GPx) (Bos taurus, UniProt P00435); test: Effect on glutathione peroxidase activity; conditions: for inhibition at 243.9 µg/mL: read-out: GPx Inhibition under Reaction Conditions (%)
T1 construct: purchased Sigma G6137
T1 sequence (P00435 1-205): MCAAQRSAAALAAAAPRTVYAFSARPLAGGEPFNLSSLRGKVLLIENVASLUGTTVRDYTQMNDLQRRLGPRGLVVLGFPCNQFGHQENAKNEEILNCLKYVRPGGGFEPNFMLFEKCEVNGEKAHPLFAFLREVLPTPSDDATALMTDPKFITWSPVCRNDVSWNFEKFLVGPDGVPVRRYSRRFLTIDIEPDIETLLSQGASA
Description: Sample (20 µL, 5 mg/mL of pure DMSO) was mixed with 8 μL of EDTA solution, 10 μL of glutathione reductase (0.2 U Sigma G3664), 4 μL of GSH solution, 10 μL of glutathione peroxidase (0.04 U Sigma G6137), 22 μL of H2O2 and 332 μL of 50 mM sodium phosphate, pH 7.0). To start the reaction, 4 μL of NADPH solution (N5130) was added and the decrease in the absorbance (340 nm) was read after 10 min of incubation at 25 °C. All solutions were prepared in 50 mM buffer and concentrations of reagents in the final mixture were as follows: 1mM EDTA, 0.2 U glutathione reductase, 2 mM GSH, 0.04 U glutathione peroxidase, 1.5 mM H2O2 and 0.8 mM NADPH. Blank sample was prepared with buffer instead of the studied sample and background was measured (mixture containing studied sample and buffer only). One unit of enzyme activity was defined as nMol of NADPH consumed/min·mL sample, in comparison with nMol of NADPH consumed/min in blank (reagent) sample [76].

[3] = target: T2, indoleamine 2,3-dioxygenases 1 (IDO1) (Homo sapiens, UniProt P14902); test: Universal IDO1/IDO2/TDO Inhibitor Screening Assay Kit, IDO1; conditions: ± SEM, three measurements
T2 construct: purchased BPS Bioscience, Inc. (San Diego, CA, USA)

BChE = BChE (Homo sapiens, UniProt P06276); conditions: sample 142.9 μg/mL in the reaction mixture
Description: Ellman’s colorimetric method was used with modifications described previously. Tested sample (10 μL) at concentration 5 mg/mL was mixed with 20 μL of AChE (or BChE) solution (0.28 U/mL) and completed after 5 min with 35 μL of ATChI (or BTCh) (1.5 mmol/L), 175 μL of 0.3 mmol/L DTNB (containing 10 mmol/L NaCl and 2 mmol/L MgCl2) and 110 μL with Tris-HCl buffer (50 mmol/L, pH 8.0). Samples containing 10 μL of Tris-HCl buffer instead of the studied sample were run in the same way (“blank” samples). The increase in the absorbance due to the spontaneous hydrolysis of the substrate was monitored using “blank” samples containing ATCh (or BTCh) and DTNB completed to 350 μL with Tris-HCl buffer. All samples were incubated at 22 °C (30 min; incubation time was determined after optimization experiments, details not shown), and the absorbance was measured (405 nm, 96-well microplate reader, Tecan Sunrise, Grödig, Austria). The “false-positive” effect of studied compounds was measured according to Rhee et al. with minor modifications, as described previously: after mixing of the substrate with the enzyme and buffer, the “false-positive” sample was left for incubation. Then, a studied sample and DTNB were added, followed by an immediate measurement of the absorbance.
Reference cholinesterase inhibitors were used for the calculations of results (eserine, neostigmine, magniflorine, rivastigmine and donepezil). For this purpose, for each compound, 16 dilutions in pure DMSO were prepared (2.57–41.14 μg/mL). These solutions (10 μL) were tested as described above and calibration curves were produced.
Each sample was analyzed in at least eight repeats, and all solutions used in a set of analyses were prepared in the same buffer. For calculations, the background of the sample (10 μL mixed with 340 μL of Tris buffer) was measured at 405 nm and subtracted during calculations. Then, the absorbance of the test sample was subtracted from the absorbance of the “blank” sample.

[4] = 243.9 μg/mL in the reaction mixture
[5] = 100 µg/mL, read-out: Inhibition (%) IDO1

Sequence of BChE (P06276 29-602, species assumed): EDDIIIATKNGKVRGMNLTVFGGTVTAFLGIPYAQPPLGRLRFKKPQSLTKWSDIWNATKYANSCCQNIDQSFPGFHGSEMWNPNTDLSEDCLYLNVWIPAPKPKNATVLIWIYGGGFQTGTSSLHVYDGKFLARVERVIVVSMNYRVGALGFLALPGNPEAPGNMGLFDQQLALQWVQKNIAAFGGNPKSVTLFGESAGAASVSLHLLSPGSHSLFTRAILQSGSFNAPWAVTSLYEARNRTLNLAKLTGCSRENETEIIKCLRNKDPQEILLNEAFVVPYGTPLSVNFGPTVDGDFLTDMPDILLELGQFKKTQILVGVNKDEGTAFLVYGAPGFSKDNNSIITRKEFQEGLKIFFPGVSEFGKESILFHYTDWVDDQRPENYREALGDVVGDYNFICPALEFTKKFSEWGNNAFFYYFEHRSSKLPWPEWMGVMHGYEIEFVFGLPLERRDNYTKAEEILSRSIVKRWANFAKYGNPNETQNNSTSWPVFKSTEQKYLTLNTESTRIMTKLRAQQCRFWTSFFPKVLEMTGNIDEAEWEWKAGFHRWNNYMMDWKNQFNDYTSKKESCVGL
T2 sequence (P14902 whole entry, species assumed): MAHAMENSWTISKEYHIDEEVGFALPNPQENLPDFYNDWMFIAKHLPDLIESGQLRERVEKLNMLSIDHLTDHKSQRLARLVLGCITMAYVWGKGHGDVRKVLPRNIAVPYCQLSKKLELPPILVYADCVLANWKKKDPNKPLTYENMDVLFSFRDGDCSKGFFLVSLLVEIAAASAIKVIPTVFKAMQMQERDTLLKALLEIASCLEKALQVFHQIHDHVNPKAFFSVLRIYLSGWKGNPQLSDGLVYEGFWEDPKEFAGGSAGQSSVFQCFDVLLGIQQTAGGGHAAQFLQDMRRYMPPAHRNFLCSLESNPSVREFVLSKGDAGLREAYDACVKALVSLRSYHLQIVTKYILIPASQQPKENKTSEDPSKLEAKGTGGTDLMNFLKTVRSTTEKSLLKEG

Structure (SMILES) | SOD Inhibition (%) [1] [%] | SOD Inhibition (%) ([1]; listed as (−)-usnic acid) | GPx Inhibitory Activity (nMol Depleted NADPH/min Incubation) [2, 4] | inhibition at 243.9 µg/mL [2] [%] | Inhibition (%) IDO1 ([3]; 100 µg/mL) | inhibition at 100 µg/mL ([3]; read-out: Inhibition (%) IDO1, 100 µg/mL) [%] | SOD Inhibition (%) ([1]; listed as evernic acid) | inhibition at 243.9 µg/mL [2, 4] [%] | inhibition at 100 µg/mL [3, 5] [%] | Equivalent Reference Concentration, Donepezil, BChE (BChE) [µg/mL] | Equivalent Reference Concentration, Eserine, BChE (BChE) [µg/mL] | Equivalent Reference Concentration, Magniflorine, BChE (BChE) [µg/mL] | Equivalent Reference Concentration, Neostygmine, BChE (BChE) [µg/mL] | Equivalent Reference Concentration, Rivastigmine, BChE (BChE) [µg/mL] | SOD Inhibition (%) ([1]; listed as salazinic acid) | GPx Inhibition under Reaction Conditions (%) [2, 4]
CC(=O)C1=C(O)C=C2Oc3c(C(C)=O)c(O)c(C)c(O)c3C2(C)C1=O (single isomer, unassigned; (-)) [(−)-Usnic acid, (−)-usnic acid] | 19.6 ± 0.6 | ~ 20% | 27.3 ± 1.3 nMol Depleted NADPH/min Incubation | 13.7 ± 2.3 | 21.6 ± 0.9% | 21.6 ± 0.85 |  |  |  |  |  |  |  |  |  | 
COc1cc(C)c(C(=O)Oc2cc(C)c(C(=O)O)c(O)c2)c(O)c1 [Evernic acid, evernic acid] | 21.2 ± 0.0 |  | 39.9 ± 1.0 nMol Depleted NADPH/min Incubation |  | 32.8 ± 1.9% |  | ~ 20% | 20 ± 2.1 | 32.8 ± 1.93 | 9.5 ± 0.0 | 10.9 ± 0.1 | 52.3 ± 0.1 | 16.5 ± 0.2 | 85.9 ± 0.1 |  | 
Cc1cc(O)c(C=O)c2c1C(=O)Oc1c(CO)c(O)c3c(c1O2)C(O)OC3=O (stereo not drawn) [Salazinic acid, salazinic acid] | 19.4 ± 0.3 |  |  |  | did not exhibit any inhibition effect; also recorded: not active |  |  |  | < 10 | 7.9 ± 0.3 | 9.0 ± 0.1 | 43.2 ± 0.2 | 13.6 ± 0.1 | 70.9 ± 0.3 | ~ 20% | -
